Data as given in the supplement of paper PMC10307832.

Columns and labels:
Assay in all cases: relative viability (nuclei count vs DMSO), 5 days (fraction); higher = more cells survive
Dovitinib + AZD7762 = compound: CN1CCN(c2ccc3nc(-c4c(N)c5c(F)cccc5[nH]c4=O)[nH]c3c2)CC1 [Dovitinib] + NC(=O)Nc1cc(-c2cccc(F)c2)sc1C(=O)N[C@H]1CCCNC1 [AZD7762] (partner 0.2 µM)
Method in brief: (§1)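 One day after seeding in 1536-well plates, lung cancer cell lines were dosed by pin tool. Dosing was either single-drug or a fixed anchor-drug dose plus five library-drug doses (not always all listed) in √10 steps. After 5 days, nuclei were stained in one fix-and-stain step and counted on 4× images, and relative viability is the nuclei count of treated wells over that of vehicle wells, given as the median of duplicate plates.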

Dovitinib + Lapatinib = compound: CN1CCN(c2ccc3nc(-c4c(N)c5c(F)cccc5[nH]c4=O)[nH]c3c2)CC1 [Dovitinib] + CS(=O)(=O)CCNCc1ccc(-c2ccc3ncnc(Nc4ccc(OCc5cccc(F)c5)c(Cl)c4)c3c2)o1 [Lapatinib] (partner 2 µM)
Method in brief: as §1

Dovitinib + Decitabine = compound: CN1CCN(c2ccc3nc(-c4c(N)c5c(F)cccc5[nH]c4=O)[nH]c3c2)CC1 [Dovitinib] + Nc1ncn([C@H]2C[C@H](O)[C@@H](CO)O2)c(=O)n1 [Decitabine] (partner 2 µM)
Method in brief: as §1

Dovitinib + Olaparib = compound: CN1CCN(c2ccc3nc(-c4c(N)c5c(F)cccc5[nH]c4=O)[nH]c3c2)CC1 [Dovitinib] + O=C(c1cc(Cc2n[nH]c(=O)c3ccccc23)ccc1F)N1CCN(C(=O)C2CC2)CC1 [Olaparib] (partner 8 µM)
Method in brief: as §1

| Cell Line | relative viability (Dovitinib + AZD7762; first compound 0.02 µM) | relative viability (Dovitinib + AZD7762; first compound 0.06325 µM) | relative viability (Dovitinib + AZD7762; first compound 0.2 µM) | relative viability (Dovitinib + AZD7762; first compound 0.6325 µM) | relative viability (Dovitinib + AZD7762; first compound 2 µM) | relative viability (Dovitinib + Lapatinib; first compound 0.02 µM) | relative viability (Dovitinib + Lapatinib; first compound 0.06325 µM) | relative viability (Dovitinib + Lapatinib; first compound 0.2 µM) | relative viability (Dovitinib + Lapatinib; first compound 0.6325 µM) | relative viability (Dovitinib + Lapatinib; first compound 2 µM) | relative viability (Dovitinib + Decitabine; first compound 0.02 µM) | relative viability (Dovitinib + Decitabine; first compound 0.06325 µM) | relative viability (Dovitinib + Decitabine; first compound 0.2 µM) | relative viability (Dovitinib + Decitabine; first compound 0.6325 µM) | relative viability (Dovitinib + Decitabine; first compound 2 µM) | relative viability (Dovitinib + Olaparib; first compound 0.02 µM) | relative viability (Dovitinib + Olaparib; first compound 0.06325 µM) | relative viability (Dovitinib + Olaparib; first compound 0.2 µM) | relative viability (Dovitinib + Olaparib; first compound 0.6325 µM) | relative viability (Dovitinib + Olaparib; first compound 2 µM) |
| --- | --- | --- | --- | --- | --- | --- | --- | --- | --- | --- | --- | --- | --- | --- | --- | --- | --- | --- | --- | --- |
| NCI-H2347 | 0.701 | 0.606 | 0.864 | 0.774 | 0.754 | 0.588 | 0.882 | 1 | 0.924 | 0.967 | 0.642 | 0.545 | 0.644 | 0.682 | 0.623 | 0.568 | 0.59 | 0.621 | 0.641 | 0.606 |
| NCI-H2405 | 0.693 | 0.781 | 0.736 | 0.696 | 0.78 | 1.1 | 0.946 | 1.04 | 1.09 | 1.35 | 0.714 | 0.745 | 0.832 | 0.688 | 0.845 | 0.858 | 0.849 | 0.944 | 0.815 | 0.903 |
| NCI-H3122 | 0.926 | 1.02 | 0.995 | 0.925 | 0.93 | 0.996 | 1.01 | 0.967 | 1.05 | 1.02 | 0.493 | 0.431 | 0.447 | 0.48 | 0.374 | 0.623 | 0.619 | 0.663 | 0.56 | 0.536 |
| PC-3 [JPC-3] | 0.84 | 0.855 | 0.921 | 0.866 | 0.827 | 0.483 | 0.398 | 0.466 | 0.488 | 0.47 | 0.949 | 0.882 | 0.859 | 0.804 | 0.898 | 1.16 | 1.16 | 1.14 | 1.13 | 1.15 |
| PC-14 | 0.309 | 0.343 | 0.385 | 0.351 | 0.357 | 0.296 | 0.336 | 0.308 | 0.309 | 0.279 | 0.21 | 0.224 | 0.241 | 0.217 | 0.22 | 0.291 | 0.276 | 0.27 | 0.217 | 0.247 |
| RERF-LC-KJ | 1.05 | 0.916 | 1.03 | 1.02 | 0.868 | 0.94 | 0.884 | 0.853 | 0.909 | 0.825 | 0.709 | 0.729 | 0.701 | 0.685 | 0.637 | 0.932 | 0.892 | 0.939 | 0.982 | 0.896 |
